Assay results published in ChEMBL document CHEMBL1201862, “PubChem BioAssay data set” (2004).
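All cell lines were grown in 96-well plates and treated with compound for 48 hours. GI50 is the concentration that inhibits growth by half.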 Activity calls are given as the source filed them. Cut-off read from the data, not from the text of the source: active = GI50 up to about 1.1 µM and inactive = higher.

Key:
Assay in all cases: NCI anticancer screen, dose series, 48 h
KM12 = system: KM12
MCF7 = system: MCF7
SF-268 = system: SF-268
SW-620 = system: SW-620
Hs-578T = system: Hs-578T
SK-OV-3 = system: SK-OV-3
SK-MEL-2 = system: SK-MEL-2
NCI-H522 = system: NCI-H522
NCI/ADR-RES = system: NCI/ADR-RES
SK-MEL-28 = system: SK-MEL-28
M14 = system: M14
ACHN = system: ACHN
HOP-62 = system: HOP-62
UO-31 = system: UO-31
NCI-H460 = system: NCI-H460
A549 = system: A549
MDA-N = system: MDA-N
UACC-257 = system: UACC-257
EKVX = system: EKVX
A498 = system: A498

Measured: GI50

COc1cc(/C=C/C(=O)OCCc2ccccc2)ccc1O
inactive: KM12 14.6 µM | MCF7 20.8 µM | SF-268 20.5 µM | SW-620 22.2 µM | Hs-578T 25.6 µM | SK-OV-3 16.1 µM | SK-MEL-2 21.6 µM | NCI-H522 5.4 µM | NCI/ADR-RES 23.7 µM | SK-MEL-28 13.9 µM | M14 15 µM | ACHN 18.5 µM | HOP-62 16.3 µM | UO-31 13.9 µM | NCI-H460 18.6 µM | A549 18.4 µM | MDA-N 19.1 µM | UACC-257 18.1 µM | EKVX 16.3 µM

CCN(CC)CCC(=O)c1ccc(Oc2ccc(F)cc2)cc1
inactive: KM12 12.2 µM | MCF7 17.9 µM | SF-268 18.3 µM | SW-620 18.4 µM | Hs-578T 24.2 µM | SK-OV-3 > 100 µM | SK-MEL-2 46.2 µM | NCI/ADR-RES 26.2 µM | SK-MEL-28 16.4 µM | M14 18.3 µM | ACHN 18.4 µM | HOP-62 22.3 µM | A549 > 100 µM | MDA-N 18 µM | UACC-257 17.8 µM | EKVX 20.6 µM

O=C1/C(=C/c2cccc(Br)c2)Cc2ccccc21
inactive: KM12 19.3 µM | MCF7 3.66 µM | SF-268 53.6 µM | SW-620 > 100 µM | Hs-578T 29.4 µM | SK-OV-3 93.1 µM | SK-MEL-2 28.8 µM | NCI-H522 96.4 µM | NCI/ADR-RES 50.6 µM | SK-MEL-28 > 100 µM | M14 67.3 µM | ACHN > 100 µM | HOP-62 44.6 µM | UO-31 31.8 µM | NCI-H460 30.8 µM | A549 26.8 µM | MDA-N 54 µM | UACC-257 91 µM | EKVX 27.7 µM

CCOC(=O)c1nnsc1NN
inactive: KM12 95.3 µM | MCF7 60.5 µM | SF-268 > 100 µM | SW-620 > 100 µM | Hs-578T > 100 µM | SK-OV-3 > 100 µM | SK-MEL-2 > 100 µM | NCI-H522 > 100 µM | NCI/ADR-RES > 100 µM | SK-MEL-28 > 100 µM | M14 90.6 µM | ACHN > 100 µM | HOP-62 > 100 µM | UO-31 > 100 µM | NCI-H460 55.8 µM | A549 62.5 µM | MDA-N 72.6 µM | UACC-257 > 100 µM | EKVX > 100 µM

NCCCCC(N)C(=O)N1CCN(c2nc(N3CCCC3)c3nc(Cl)c(NCc4ccccc4)nc3n2)CC1 (stereo not given)
inactive: KM12 21.8 µM | MCF7 19.6 µM | SF-268 20 µM | SW-620 19.6 µM | Hs-578T 19.4 µM | SK-OV-3 20.2 µM | SK-MEL-2 19 µM | NCI-H522 19.3 µM | NCI/ADR-RES 44.6 µM | SK-MEL-28 20.7 µM | M14 19.1 µM | ACHN 19.1 µM | HOP-62 13.9 µM | UO-31 17.5 µM | NCI-H460 17.5 µM | A549 18.5 µM | MDA-N 17.7 µM | UACC-257 18.2 µM | EKVX 18.7 µM

Cc1nc(C(N)=S)sc1C(=O)C/C(=N/N)C(=O)Nc1ccc(Cl)cc1
inactive: KM12 77.1 µM | MCF7 43.1 µM | SF-268 > 100 µM | SW-620 > 100 µM | Hs-578T 39.1 µM | SK-OV-3 > 100 µM | SK-MEL-2 > 100 µM | NCI-H522 31 µM | NCI/ADR-RES 60.4 µM | SK-MEL-28 > 100 µM | M14 > 100 µM | ACHN 44.6 µM | HOP-62 50.8 µM | UO-31 70.6 µM | NCI-H460 55.5 µM | A549 > 100 µM | MDA-N > 100 µM | UACC-257 > 100 µM | EKVX 52.8 µM

COc1cc2c(c(OC)c1OC)C(=O)[C@@H]1[C@H]2N1C(N)=O
inactive: KM12 > 100 µM | MCF7 > 100 µM | SF-268 > 100 µM | SW-620 > 100 µM | Hs-578T 96.2 µM | NCI-H522 > 100 µM | NCI/ADR-RES > 100 µM | SK-MEL-28 > 100 µM | M14 > 100 µM | ACHN 61.1 µM | HOP-62 > 100 µM | UO-31 > 100 µM | NCI-H460 98.2 µM | A549 > 100 µM | MDA-N 88.5 µM | UACC-257 > 100 µM | EKVX > 100 µM

CO/N=C1\CC(NC(=O)CNC(=O)OC(C)(C)C)c2ccsc21 (stereo not given)
inactive: MCF7 > 100 µM | SF-268 > 100 µM | SW-620 > 100 µM | Hs-578T > 100 µM | SK-OV-3 > 100 µM | A498 > 100 µM | SK-MEL-2 > 100 µM | NCI/ADR-RES > 100 µM | SK-MEL-28 > 100 µM | M14 > 100 µM | HOP-62 > 100 µM | UO-31 > 100 µM | NCI-H460 > 100 µM | A549 > 100 µM | MDA-N 49.2 µM | UACC-257 > 100 µM | EKVX > 100 µM
